The values that follow come from BindingDB's records for doi:10.7270/Q2S180TW (Burnham Center For Chemical Genomics, 2008).

The target of this assay is Heat shock 70 kDa protein 1A (Homo sapiens, UniProt V9GZ37). In words: Hsp70 inhibitors, probe displacement, primary screen, biochemical, fluorescence polarization (AID 583). Conditions: pH 7; 23 °C. On the technique in general: Fluorescence polarisation rises when a labelled molecule tumbles more slowly, as on binding a larger partner.
Chain of Heat shock 70 kDa protein 1A (V9GZ37 whole entry): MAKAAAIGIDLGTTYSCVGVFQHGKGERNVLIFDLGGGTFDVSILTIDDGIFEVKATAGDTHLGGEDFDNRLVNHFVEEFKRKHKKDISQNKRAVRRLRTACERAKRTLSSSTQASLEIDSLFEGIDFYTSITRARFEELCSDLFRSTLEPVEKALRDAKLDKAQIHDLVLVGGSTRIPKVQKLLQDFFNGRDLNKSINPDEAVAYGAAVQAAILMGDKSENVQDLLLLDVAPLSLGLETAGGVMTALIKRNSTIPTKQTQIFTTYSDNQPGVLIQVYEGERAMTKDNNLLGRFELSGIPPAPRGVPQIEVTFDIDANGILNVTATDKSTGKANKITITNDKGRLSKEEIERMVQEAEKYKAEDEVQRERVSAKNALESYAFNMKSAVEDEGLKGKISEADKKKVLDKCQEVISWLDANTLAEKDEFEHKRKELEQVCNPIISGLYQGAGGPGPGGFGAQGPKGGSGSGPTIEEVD

In general, IC50 refers to the concentration that gives 50% inhibition. Compound `CC(=O)N1CCC2(CC1)c1c(n[nH]c1C)OC(=N)C2C#N` (configuration not stated) [6-azanyl-1'-ethanoyl-3-methyl-spiro[2H-pyrano[2,3-c]pyrazole-4,4'-piperidine]-5-carbonitrile] yielded an IC50 of 100 µM.

Compound `C=c1[nH]n(-c2cccc(C(=O)O)c2)c(=O)c1=CC=Cc1ccco1` [SMR000113614] came in with an IC50 of 21.7 µM.
